The values below come from article PMC9732360, “Discovery and structure of a widespread bacterial ABC transporter specific for ergothioneine” (Nature Communications, 2022).

Some results are limits rather than exact numbers.

Assay [1] has as its target EgtUA (Streptococcus pneumoniae, UniProt A0A0H2ZLL3).
The target of assay [2] is T1, SaEgtUC (Staphylococcus aureus, UniProt A0A0H2XK79).
T1 construct: gene egtUBC; N-terminal His6-SUMO cleaved off; expressed in E. coli BL21(DE3)
T1 sequence (A0A0H2XK79 233-504): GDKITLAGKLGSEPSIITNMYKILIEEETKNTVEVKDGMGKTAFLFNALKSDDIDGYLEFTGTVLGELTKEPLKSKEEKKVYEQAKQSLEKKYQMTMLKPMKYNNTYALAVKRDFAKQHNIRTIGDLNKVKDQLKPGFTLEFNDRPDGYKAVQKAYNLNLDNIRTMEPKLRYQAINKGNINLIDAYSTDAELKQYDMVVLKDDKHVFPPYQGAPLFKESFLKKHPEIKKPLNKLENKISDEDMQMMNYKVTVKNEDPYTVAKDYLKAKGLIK
The experiment in a line: intrinsic tyrosine fluorescence titration. It is filed as binding. The following applies: read-out: Ka (M^-1) (converted). The source says:
intrinsic tyrosine fluorescence titration on SaEgtUC

For assay [3], the target named is T2, LmEgtUC (Listeria monocytogenes, UniProt Q8Y775).
T2 construct: gene egtUBC; N-terminal His6-SUMO cleaved off; expressed in E. coli BL21(DE3); the lmo locus tag is of strain EGD-e, strain used printed as 10403S
T2 sequence (Q8Y775 231-504): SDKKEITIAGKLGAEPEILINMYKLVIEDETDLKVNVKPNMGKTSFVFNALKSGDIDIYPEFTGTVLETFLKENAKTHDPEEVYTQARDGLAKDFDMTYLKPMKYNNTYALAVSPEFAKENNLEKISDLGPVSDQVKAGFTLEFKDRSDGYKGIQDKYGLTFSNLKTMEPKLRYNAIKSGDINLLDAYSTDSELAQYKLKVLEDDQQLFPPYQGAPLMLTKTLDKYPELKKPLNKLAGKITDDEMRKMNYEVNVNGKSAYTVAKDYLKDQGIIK
The experiment in a line: intrinsic tyrosine fluorescence titration. The class given is binding. The conditions noted are these: read-out: Ka (M^-1) (converted). The source says: intrinsic tyrosine fluorescence titration on LmEgtUC

In assay [4] the target is T3, EfEgtUC (Enterococcus faecalis, UniProt Q837Z8).
T3 construct: gene egtUBC; N-terminal His6-SUMO cleaved off; expressed in E. coli BL21(DE3)
T3 sequence (Q837Z8 233-505): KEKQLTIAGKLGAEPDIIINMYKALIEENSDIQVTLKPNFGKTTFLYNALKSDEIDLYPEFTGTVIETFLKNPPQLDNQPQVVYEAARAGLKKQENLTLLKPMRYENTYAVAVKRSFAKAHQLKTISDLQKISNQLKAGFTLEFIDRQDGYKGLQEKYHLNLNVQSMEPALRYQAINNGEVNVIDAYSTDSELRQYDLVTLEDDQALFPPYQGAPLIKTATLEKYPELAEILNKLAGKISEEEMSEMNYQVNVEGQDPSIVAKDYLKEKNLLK
The experiment in a line: intrinsic tyrosine fluorescence titration. The conditions noted are these: read-out: Ka (M^-1) (converted). The class given is binding. An excerpt:
intrinsic tyrosine fluorescence titration on EfEgtUC

Assay [5] addresses T4, SpEgtUC (Streptococcus pneumoniae, UniProt A0A0H2ZQB9).
T4 construct: gene egtUBC; N-terminal His6-SUMO cleaved off; expressed in E. coli BL21(DE3); monomer
The experiment in a line: isothermal titration calorimetry. The class given is binding. The following applies: read-out: Ka (M^-1) (converted). The source says: isothermal titration calorimetry on SpEgtUC
On the technique in general: Isothermal titration calorimetry measures the heat released or taken up as one component is titrated into another.

Assay [6] addresses T5, SpEgtUC (Streptococcus pneumoniae, UniProt A0A0H2ZQB9, G244F).
T5 construct: gene egtUBC
The experiment in a line: biochemical.

Assay [7] concerns the target T6, SpEgtUC (Streptococcus pneumoniae, UniProt A0A0H2ZQB9, Y419F).
T6 construct: gene egtUBC
The experiment in a line: biochemical.

For assay [8], the target named is T7, SpEgtUC (Streptococcus pneumoniae, UniProt A0A0H2ZQB9, E375Q).
T7 construct: gene egtUBC
T7 sequence (A0A0H2ZQB9 233-506 E375Q): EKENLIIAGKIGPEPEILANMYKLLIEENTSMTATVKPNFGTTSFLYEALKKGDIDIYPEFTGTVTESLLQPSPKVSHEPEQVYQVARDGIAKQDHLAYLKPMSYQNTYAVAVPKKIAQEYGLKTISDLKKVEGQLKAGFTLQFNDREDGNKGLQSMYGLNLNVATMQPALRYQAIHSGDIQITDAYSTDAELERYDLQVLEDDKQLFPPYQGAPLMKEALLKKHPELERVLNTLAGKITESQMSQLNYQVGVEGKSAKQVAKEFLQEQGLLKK
The experiment in a line: biochemical.

Assay [9] addresses T8, SpEgtUCCTT (Streptococcus pneumoniae, UniProt A0A0H2ZQB9, G502V/L503C).
T8 construct: gene egtUBC
The experiment in a line: biochemical.

Assay [10] concerns the target T9, SpEgtUC (Streptococcus pneumoniae, UniProt A0A0H2ZQB9, F293Y).
T9 construct: gene egtUBC
The experiment in a line: biochemical.

Assay [11] concerns the target T4, SpEgtUC. The experiment in a line: NMR chemical shift perturbation titration. It is filed as binding. The conditions noted are these: read-out: Ka (M^-1) (converted). An excerpt:
NMR chemical shift perturbation titration on SpEgtUC

T4 sequence (A0A0H2ZQB9 233-506): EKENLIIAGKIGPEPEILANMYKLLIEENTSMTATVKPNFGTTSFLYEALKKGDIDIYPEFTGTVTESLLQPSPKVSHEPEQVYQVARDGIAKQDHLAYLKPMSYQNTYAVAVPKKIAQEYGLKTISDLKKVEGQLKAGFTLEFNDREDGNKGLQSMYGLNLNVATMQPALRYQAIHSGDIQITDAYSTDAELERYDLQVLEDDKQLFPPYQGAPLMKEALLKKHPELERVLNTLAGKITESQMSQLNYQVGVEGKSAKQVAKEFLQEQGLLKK
T6 sequence (A0A0H2ZQB9 233-506 Y419F): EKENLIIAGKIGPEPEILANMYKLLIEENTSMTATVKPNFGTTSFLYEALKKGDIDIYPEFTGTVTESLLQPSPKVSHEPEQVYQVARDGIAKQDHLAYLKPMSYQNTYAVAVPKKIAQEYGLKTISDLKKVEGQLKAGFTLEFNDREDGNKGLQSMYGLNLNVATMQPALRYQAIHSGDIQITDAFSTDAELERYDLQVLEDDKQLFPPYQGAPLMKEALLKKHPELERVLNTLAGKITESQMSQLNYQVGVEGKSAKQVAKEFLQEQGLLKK
T8 sequence (A0A0H2ZQB9 233-503 G502V/L503C): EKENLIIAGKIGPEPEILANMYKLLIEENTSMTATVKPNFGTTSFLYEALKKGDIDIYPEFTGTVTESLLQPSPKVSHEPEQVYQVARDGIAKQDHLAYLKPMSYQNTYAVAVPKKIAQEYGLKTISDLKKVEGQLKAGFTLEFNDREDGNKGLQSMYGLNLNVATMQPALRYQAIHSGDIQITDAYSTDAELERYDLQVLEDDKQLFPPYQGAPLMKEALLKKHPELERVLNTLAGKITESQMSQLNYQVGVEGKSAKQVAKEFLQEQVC
T5 sequence (A0A0H2ZQB9 233-506 G244F): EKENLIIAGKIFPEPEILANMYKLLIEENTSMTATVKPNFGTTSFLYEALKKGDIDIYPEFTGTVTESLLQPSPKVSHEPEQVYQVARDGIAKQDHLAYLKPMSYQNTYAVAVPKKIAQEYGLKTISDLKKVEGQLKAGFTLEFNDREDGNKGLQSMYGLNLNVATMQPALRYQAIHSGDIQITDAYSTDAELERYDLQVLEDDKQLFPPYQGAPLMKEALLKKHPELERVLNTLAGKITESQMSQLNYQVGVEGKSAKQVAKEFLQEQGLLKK
T9 sequence (A0A0H2ZQB9 233-506 F293Y): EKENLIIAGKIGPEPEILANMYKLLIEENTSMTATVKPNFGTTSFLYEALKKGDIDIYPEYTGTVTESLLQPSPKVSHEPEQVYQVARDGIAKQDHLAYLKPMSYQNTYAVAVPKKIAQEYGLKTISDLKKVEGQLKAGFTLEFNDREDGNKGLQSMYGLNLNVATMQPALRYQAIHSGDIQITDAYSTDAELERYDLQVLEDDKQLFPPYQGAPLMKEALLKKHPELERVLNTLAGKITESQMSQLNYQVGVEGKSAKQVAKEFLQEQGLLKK
Sequence of EgtUA (A0A0H2ZLL3 whole entry): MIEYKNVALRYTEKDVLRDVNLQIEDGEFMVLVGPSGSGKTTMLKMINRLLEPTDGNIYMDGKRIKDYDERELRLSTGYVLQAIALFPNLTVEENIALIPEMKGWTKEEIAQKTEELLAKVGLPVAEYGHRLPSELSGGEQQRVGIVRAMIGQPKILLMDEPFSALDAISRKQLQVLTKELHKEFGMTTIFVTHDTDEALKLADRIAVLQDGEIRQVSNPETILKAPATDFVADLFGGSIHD

For `Nc1ncnc2c1ncn2[C@@H]1O[C@H](COP(=O)(O)OP(=O)(O)OP(=O)(O)O)[C@@H](O)[C@H]1O` [ATP], in assay [1], the “in vitro ATPase activity” value was “ATPase activity of WT vs. mutant EgtUA proteins in vitro”.

On to `C[N+](C)(C)[C@@H](Cc1c[nH]c(=S)[nH]1)C(=O)[O-]` [ET, L-ergothioneine], for which the Kd in assay [2] is 0.217 µM; in [3], 0.0556 µM; in assay [4], 0.0625 µM; in assay [5], 0.0588 µM; in assay [6] it was 5 µM; in [7], 0.625 µM. The Kd in assay [8] was 25 µM; in assay [9], 0.0526 µM; in [10] it was 0.5 µM.

For `C[N+](C)(C)CC(=O)[O-]` [GB, glycine betaine], the Kd in assay [11] is > 33300 µM.

Regarding `C[N+](C)(C)[C@@H](Cc1cnc[nH]1)C(=O)[O-]` [HER, L-hercynine], in [11], the Kd was 1670 µM.
